Results published in PubChem BioAssay AID1117319 (Southern Research Institute, 2015).
Results filed as inconclusive are left out.

What follows are compounds tested against Virion infectivity factor (Human immunodeficiency virus type 1 group M subtype B (isolate BH10)) + Virion infectivity factor (Human immunodeficiency virus type 1 group M subtype B (isolate BRU/LAI)) + Virion infectivity factor (Human immunodeficiency virus type 1 group M subtype B (isolate PCV12)) + Virion infectivity factor (Human immunodeficiency virus type 1 group M subtype B (isolate HXB2)) + DNA dC->dU-editing enzyme APOBEC-3G (Homo sapiens) (UniProt P69720+P69721+P69722+P69723+Q9HC16) (assay: inhibitors of Vif binding to APOBEC3G peptide, primary screen, biochemical, TR-FRET, GST-Vif 1-94, biotin-A3G peptide, dose response retest (AID 1117319);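 note: Vif residues 1-94 fused to GST binding biotinylated APOBEC3G peptide 110-148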).
Work on CCC(c1ccc(O)c(O)c1)C(CC)c1ccc(O)c(O)c1 (configuration not stated) yielded an IC50 of 6.46 µM.
Cc1ccc(C)n1/N=C1/NC(=O)CS1 showed an IC50 of 0.9 µM.
COc1cc(NC(=O)CS(=O)(=O)c2ccc(C)cc2)cc(OC)c1OC gave an IC50 of 23.3 µM.
In the case of CN(CCC#N)C(=O)COC(=O)c1c2c(nc3ccccc13)/C(=C\c1ccco1)CC2, the IC50 is reported as 1.66 µM.
For CCOC(=O)N1CCN(c2ccc(O)cc2)CC1, the IC50 was 16.8 µM.
Work on CNc1ccccc(-c2ccc3cc4c(cc3n2)OCO4)c1=O yielded an IC50 of 16.5 µM.
In the case of O=C1c2sc3nc4n(c(=O)c3c2CCC1Br)CCCCC4 (configuration not stated), the IC50 is reported as 0.54 µM.
O=C(Nc1ccn(-c2ccccc2)n1)c1ccccc1Br gave an IC50 of 10.6 µM.
CC(Cc1c[nH]c2ccccc12)C(=O)NCc1ccco1 (configuration not stated) gave an IC50 of 33 µM.
For CCOC(=O)c1cnn2c(N)c(C#N)nnc12, the IC50 was 21.4 µM.
For N#C/C(C(N)=O)=c1/ccc2c(c1)N1C3=C(CCCC3)CC3CCCCC31N=2 (configuration not stated), the IC50 was 28.2 µM.
Cc1ccc(C)n1-c1sccc1C(=O)O gave an IC50 of 1.92 µM.
CCc1ccc(CC)c(S(=O)(=O)Nc2ccc(C(=O)O)c(O)c2)c1 showed an IC50 of 35.3 µM.
For O=C(c1ccc(=O)oc1)N1CCCc2ccccc21, the IC50 was 38.3 µM.
Work on O=C(O)CCC(=O)N(Cc1cccs1)Cc1cccs1 yielded an IC50 of 79.6 µM.
Work on Cc1cc(-c2csc(NC(=O)c3cc4ccccc4o3)n2)c(C)n1C yielded an IC50 of 48.7 µM.
Compound O=C(O)CSc1c2c(nc3cc(C(=O)N4CCOCC4)ccc13)CCCC2 has an IC50 of 5.6 µM.
O=C1c2c(O)ccc(O)c2C(=O)c2c(NCCNCCO)ccc(NCCNCCO)c21 showed an IC50 of 7.96 µM.
For O=C(Nc1nc(-c2ccco2)c(-c2ccco2)s1)c1ccco1, the IC50 was 32.2 µM.
With Cn1cnnc1SC/C(O)=C(\C#N)c1nc2ccccc2[nH]1 the IC50 was 19.7 µM.
With Cc1cccc(N2C(=O)NC(=O)/C(=C/c3cc4c(cc3[N+](=O)[O-])OCO4)C2=O)c1 the IC50 was 59.1 µM.
Cc1cc2nc(C)n(CCCNC(=O)Nc3ccc(F)cc3)c2cc1C was tested, and the IC50 was 47.6 µM.
For COc1ccc(OC)c(Nc2nc(-c3ccc(O)c(O)c3)cs2)c1, the IC50 was 4.19 µM.
With c1cnc(N2CCN(c3cnccn3)CC2)nc1 the IC50 was 14.3 µM.
Work on CC(=O)NC1=NC(=O)/C(=C/c2cc(C)n(-c3cccc(C(=O)O)c3)c2C)S1 yielded an IC50 of 7.28 µM.
Compound C=CCn1c(C)c(C(C)=O)c(N2CCN(c3ccccc3)CC2)nc1=S has an IC50 of 8.23 µM.
With [O-][n+]1onc2c1CCc1c-2nc(-c2ccccc2)n1OCc1ccccc1 the IC50 was 76.9 µM.
COc1cc(NC(=O)c2noc3c2CCC3)c(OC)cc1Cl showed an IC50 of 15.8 µM.
In the case of Cc1ccc(-c2nc3s/c(=C\c4ccco4)c(=O)n3n2)cc1, the IC50 is reported as 27.6 µM.
O=C1NC(=O)N(c2ccccc2)C(=O)/C1=C\c1ccc([N+](=O)[O-])s1 showed an IC50 of 13.4 µM.
CCCC1=NN2C(=N)/C(=C\c3ccc(SCc4ccco4)o3)C(=O)N=C2S1 gave an IC50 of 8.14 µM.
In the case of CCOC(=O)C1CCCC12Nc1cccc3cccc(c13)N2 (configuration not stated), the IC50 is reported as 3.74 µM.
O=C1c2ccccc2CC1Sc1nnc(-c2ccccn2)o1 (configuration not stated) was tested, and the IC50 was 98.4 µM.
O=C(COC(=O)c1ccc(NS(=O)(=O)c2cccs2)cc1)NCc1ccco1 gave an IC50 of 5.88 µM.
In the case of N#Cc1c(N)sc(=S)c2c1CCCCC2, the IC50 is reported as 4.22 µM.
CN1CCN(C2=C(Cl)C(=O)C(c3cnc(N4CCCCC4)s3)=C(Cl)C2=O)CC1 gave an IC50 of 2.5 µM.
Compound O=C1NC(=S)S/C1=C\C=C\c1ccc([N+](=O)[O-])o1 has an IC50 of 1.84 µM.
Work on CC(C)NC(=O)c1cc(-c2ccco2)nn1-c1ccc(Cl)cc1 yielded an IC50 of 13.5 µM.
COc1ccc(NC(=O)CN(C)C(=O)c2cccc(-n3cccc3)c2)cc1 showed an IC50 of 14.9 µM.
Work on Cc1onc(-c2c(F)cccc2Cl)c1C(=O)Nc1nnc(C2CC2)s1 yielded an IC50 of 10.7 µM.
O=C(O)c1ccc(-n2cccc2/C=N\NC(=O)c2cc3cc(Br)ccc3o2)cc1 showed an IC50 of 6.47 µM.
With CC[C@H](C)/C=C(C)/C=C/C1=CC2=CC(=O)[C@]3(C)OC(=O)[C@@H](C(C)=O)[C@@H]3C2=CO1 the IC50 was 13 µM.
Work on COCCn1nnnc1C(c1cc2cc(OC)c(OC)cc2[nH]c1=O)N1CCN(c2ccc(O)cc2)CC1 (configuration not stated) yielded an IC50 of 4.8 µM.
O=C1NC(=S)NC1=Cc1ccco1 gave an IC50 of 11.3 µM.
COc1ccc(N2CCN(C(=O)COc3ccccc3)CC2)cc1 was tested, and the IC50 was 76.9 µM.
With CCSC1=C(C#N)C(c2cccs2)C(C(=O)OC)=C(C)N1 (configuration not stated) the IC50 was 75.5 µM.
For O=C(O)CC(C(=O)O)N1C(=O)/C(=C/c2ccc(-c3nc4ccccc4s3)o2)SC1=S (configuration not stated), the IC50 was 6.36 µM.
Work on CCc1noc(N)c1C(=O)Nc1ccc(F)c(Cl)c1 yielded an IC50 of 74.6 µM.
Work on CCOc1cc(N2CCOCC2)c(OCC)cc1NS(=O)(=O)c1ccc(Cl)s1 yielded an IC50 of 3.22 µM.
Compound O=[N+]([O-])c1ccccc1S(=O)(=O)NC1CCCC1 has an IC50 of 12.9 µM.
O=C(Nc1ccc2nc(-c3ccco3)c(-c3ccco3)nc2c1)N1CCCCCC1 was tested, and the IC50 was 0.58 µM.
Work on CCOC(=O)C1=C(c2ccccc2)N=c2s/c(=C\c3ccco3)c(=O)n2C1c1cccs1 (configuration not stated) yielded an IC50 of 3.76 µM.
For O/C=c1\ccc2cccc3nc(C(F)(F)F)nc1c23, the IC50 was 2.79 µM.
CCn1c(SC(C)C(=O)O)nc2sc3c(c2c1=O)CCC3 (configuration not stated) showed an IC50 of 8.89 µM.
With C/C(=N\Nc1ccc(Cl)c(C(=O)O)c1)c1ccc[nH]1 the IC50 was 8.87 µM.
CC(=O)OC1COC(n2ccc3ccccc32)C(OC(C)=O)C1OC(C)=O (configuration not stated) was tested, and the IC50 was 22.6 µM.
For O=c1[nH][nH]c2c(N=Cc3ccccc3O)ccc(F)c12, the IC50 was 0.87 µM.
